Data from patent publication US10654918B2, “Inflammatory disease diagnosis and methods of treatment using down-regulators of lipopolysaccharide-responsive beige-like anchor” (University of South Florida, priority 2013, dated 2020).

Key:
[1] = tested on: CVID receptors, B220 and TLR4; test: LPS regulates CVID receptors, B220 and TLR4 in vivo (cytometry of spleen and bone marrow cells); design: species or system C57BL/6J mice; conditions: for B220 Median Intensity fold / B220 Percentage fold / BAFFR Median Intensity fold / BAFFR Percentage fold / CD19 Median Intensity fold / CD19 Percentage fold / CD21 Median Intensity fold / CD21 Percentage fold / TACI Median Intensity fold / TACI Percentage fold / TLR4 Median Intensity fold / TLR4 Percentage fold: PBS vs LPS
Experimental: (§1) FIG. 34(A)-(B) are graphs showing LPS regulates BAFFR in vivo and in vitro. C57BL/6J mice of 2-month age were injected intraperitoneally with LPS (5 μg/g body weight) or PBS (control). For in vitro LPS stimulation, cells from mouse spleen or bone marrow were cultured with or without LPS (1 μg/ml) for 24 hr. Cells were stained with fluorophores-conjugated BAFFR and TACI antibodies and DAPI for dead/live discrimination and analyzed with cytometry. (A) Spleocytes without LPS-P3, (B) bone marrow cells without LPS-P3. Negative gating was based on B220 negative cells, which are negative for BAFFR and TACI. Numbers other than percentage are arbitrary MFI units. All experiments were done in triplicate for in the vitro experiment and data shown is representative of two separate experiments.
(§2) To investigate whether CVID genes also respond to LPS, mice were injected intraperitoneally with LPS. Twenty-four hours later the spleen and bone marrow cells were harvested and subjected to cytometry assay.

LRBA = test: Plasma LRBA levels (ELISA) in mice stimulated with LPS; type: in vivo
Experimental: (A) Mice stimulated with LPS (1 μg/g body weight) for 6 hours. (B) OVA induced asthma mouse model.
(§3) (C) Asthma patients with an exacerbation or controlled symptoms; (D) Human mononuclear leukocytes stimulated with LPS (1 μg/ml). LPS was derived from Escherichia coli 0111:B4 (Sigma, St. Louis, Mo.). LRBA levels were determined by LRBA ELISA Kit using 100 μl of plasma or conditioned media in each well, following the manufacturer's protocol.
(§4) A) Mice stimulated with LPS (5 μg/g body weight) for 6 hours. (B) OVA induced asthma mouse model; (C) Asthma patients with an exacerbation or controlled symptoms; (D) Human mononuclear leukocytes stimulated with LPS (1 μg/ml). LRBA levels were determined by LRBA ELISA Kit using 100 μl of plasma or conditioned media in each well. C57BL/6J mice were injected intraperitoneally with 500 μl of 12 mg/kg (body weight) of LRBA antibody or control normal rabbit 1 gG suspended in saline three times. LPS at 7.5 mg/kg in 0.2 ml PBS i.p was followed. About 100 μl of blood was collected by submandibular venipuncture after 2 hours of LPS injection. Plasma samples were obtained by centrifugation at 3000 rpm for 15 min and used for cytokine assay. The TNFα and IL-6 concentrations were detected using the mouse CBA Th1/Th2/Th17 cytokine kit. The Phosflow Starter Kit contains Cytofix Fixation Buffer, Phosflow Perm Buffer III and Stain Buffer BSA.

[2] = tested on: Human mononuclear leukocytes; test: LRBA levels in culture supernatants of mononuclear leukocytes stimulated with LPS; type: cell-based; conditions: LPS 1 μg/ml
Experimental: as §3, §4

[3] = tested on: splenocytes and bone marrow cells; test: Ex vivo culture of splenocytes and bone marrow cells with LPS; type: cell-based, mouse; conditions: ex vivo cell culture, 24 h LPS stimulation (1 μg/ml)
Experimental: as §1, §2

[4] = tested on: RAW264.7 macrophage cells; test: Time-lapse video of LRBA-associated vesicle movement after LPS; type: cell-based, mouse
Experimental: FIGS. 14(A) and (B) are graphs showing LPS stimulates LRBA-positive vesicles movements. RAW264.7 macrophage cells stably transfected with pBWEGFP were cultured in a glass bottom dish and put into the culture chamber. LPS was added at final concentration of 100 ng/ml. The time-lapse video of four living cells was taken at one picture per second using the Leica TCS SP2 laser scanning inverted confocal microscope with a mini cell culture chamber at 37° C. and 5% CO2. (A) Average speed of LRBA-associated vesicles; (B) Average maximum speed of LRBA-associated vesicles; The two tails and unpaired T test p values: ***p<0.001; *p<0.0138 (A); ***p<0.0005; *p<0.0117 (B).
Time lapse video was taken for living macrophage cells. RAW264.7 macrophage cells stably transfected with pBWEGFP were cultured in a glass bottom dish and put into the mini cell culture chamber at 37° C. and 5% CO2 in a Leica TCS SP2 laser scanning inverted confocal microscope. LPS was added at final concentration of 100 ng/ml. The time-lapse video of four living cells was taken at one picture per second using the Avg. timelapse interval: 1000.05 ms (1.0 Hz) (+/−8.9 ms); Initial SAC Position: 1700; Objective: 100× (magnification: 100.00×); Mag. changer: EMCCD (magnification: 1.00×); 8 inning: 1×1; Channel 1: c488em at 50 ms. Gain: 3 Intensification: 700 ND: 60 [Independent]. […]

[5] = Bone Marrow, LPS 5 μg/g i.p., 24 h

Lipopolysaccharide [LPS]
B220 Median Intensity [1, 5]: 2423 ± 396.6 arbitrary fluorescence intensity units
B220 Percentage [1, 5]: 15.5 ± 5.1%
BAFFR Median Intensity [1, 5]: 693.3 ± 84.1 arbitrary fluorescence intensity units
BAFFR Percentage [1, 5]: 43.7 ± 4.9%
CD19 Median Intensity [1, 5]: 1951105 arbitrary fluorescence intensity units
CD19 Percentage [1, 5]: 17.9 ± 5.5%
CD21 Median Intensity [1, 5]: 378 ± 53.8 arbitrary fluorescence intensity units
CD21 Percentage [1, 5]: 24.5 ± 1.23%
TACI Percentage [1, 5]: 1.4 ± 0.35%
TLR4 Median Intensity [1, 5]: 592 ± 28.8 arbitrary fluorescence intensity units
TLR4 Percentage [1, 5]: 50.9 ± 3.3%
B220 Median Intensity fold ([1]; Bone Marrow): 0.69↑
B220 Percentage fold ([1]; Bone Marrow): 1.02
BAFFR Median Intensity fold ([1]; Bone Marrow): 1.58↓
BAFFR Percentage fold ([1]; Bone Marrow): 0.81
CD19 Median Intensity fold ([1]; Bone Marrow): 0.94
CD19 Percentage fold ([1]; Bone Marrow): 0.83
CD21 Median Intensity fold ([1]; Bone Marrow): 2.02↓
CD21 Percentage fold ([1]; Bone Marrow): 1.1
TACI Median Intensity fold ([1]; Bone Marrow): 1.03
TACI Percentage fold ([1]; Bone Marrow): 2.16
TLR4 Median Intensity fold ([1]; Bone Marrow): 0.97
TLR4 Percentage fold ([1]; Bone Marrow): 1.13↓
B220 Median Intensity ([1]; Spleen, LPS 5 μg/g i.p., 24 h): 4031.3 ± 153.2 arbitrary fluorescence intensity units
B220 Percentage ([1]; Spleen, LPS 5 μg/g i.p., 24 h): 58.7 ± 4.5%
BAFFR Median Intensity ([1]; Spleen, LPS 5 μg/g i.p., 24 h): 842.7 ± 73.1 arbitrary fluorescence intensity units
BAFFR Percentage ([1]; Spleen, LPS 5 μg/g i.p., 24 h): 94.7 ± 0.92%
CD19 Median Intensity ([1]; Spleen, LPS 5 μg/g i.p., 24 h): 1792237 arbitrary fluorescence intensity units
CD19 Percentage ([1]; Spleen, LPS 5 μg/g i.p., 24 h): 59 ± 4.1%
CD21 Median Intensity ([1]; Spleen, LPS 5 μg/g i.p., 24 h): 580.71 ± 56.5 arbitrary fluorescence intensity units
CD21 Percentage ([1]; Spleen, LPS 5 μg/g i.p., 24 h): 80.9 ± 9.7%
TACI Median Intensity ([1]; Spleen, LPS 5 μg/g i.p., 24 h): 560.7 ± 60.1 arbitrary fluorescence intensity units
TACI Percentage ([1]; Spleen, LPS 5 μg/g i.p., 24 h): 7.9 ± 2.70%
TLR4 Median Intensity ([1]; Spleen, LPS 5 μg/g i.p., 24 h): 502.7 ± 3.1 arbitrary fluorescence intensity units
TLR4 Percentage ([1]; Spleen, LPS 5 μg/g i.p., 24 h): 55.7 ± 4.0%
B220 Median Intensity fold ([1]; Spleen): 1
B220 Percentage fold ([1]; Spleen): 0.8↑
BAFFR Median Intensity fold ([1]; Spleen): 1.19↓
BAFFR Percentage fold ([1]; Spleen): 0.98
CD19 Median Intensity fold ([1]; Spleen): 1.07
CD19 Percentage fold ([1]; Spleen): 0.8↑
CD21 Median Intensity fold ([1]; Spleen): 1.45↓
CD21 Percentage fold ([1]; Spleen): 1.1
TACI Median Intensity fold ([1]; Spleen): 1.1
TACI Percentage fold ([1]; Spleen): 0.35↑
TLR4 Median Intensity fold ([1]; Spleen): 1.02
TLR4 Percentage fold ([1]; Spleen): 1.16↓
LRBA secreted into plasma upon LPS stimulation (LRBA; high levels, upper value): up to 6.7 μg/L
LRBA levels in plasma (LRBA; mice stimulated with LPS for 6 hours): significantly increased
LRBA levels in the culture supernatants [2]: significantly increased
TACI on splenocytes and bone marrow cells [3]: significantly upregulated
average speed of vesicles ([4]; 3 min after adding LPS (100 ng/ml) into the media): doubles
average speed of vesicles ([4]; after 5 and 23 min of LPS (100 ng/ml)): slows down to original levels
